Data: patent US20200270225A1, “Chiral Diacylhydrazine Ligands for Modulating the Expression of Exogenous Genes via an Ecdysone Receptor Complex” (Intrexon Corporation, priority 2007, published 2020)

How the values were obtained:
[1] = Dynamic vapor sorption analysis; type: physicochemical; settings: for weight loss under desiccant condition: 20% RH; for weight gain: 70% RH, after dehydration
Source text: At 70% RH, the weight gain is 6.3% for the R enantiomer and 6.2% for the racemate (data not shown), indicating moderate hygroscopicity for both materials.

[2] = Solubility in pharmaceutical excipients, Assay 1 (qualitative); type: physicochemical
Procedure: The solubility of micronized R enantiomer and racemate of 2-Ethyl-3-methoxy-benzoic acid N′-(1-tert-butyl-butyl)-N′-(3,5-dimethyl-benzoyl)-hydrazide was assessed qualitatively in commercially-available excipients (FIG. 9). Initial solutions/suspensions of 10 mg/g (test article/excipient) in glass vials were prepared by sonication at room temperature for 15 minutes with swirling for 30 seconds at 5 minute intervals, followed by heating in an aluminum block at 50° C. for 12 minutes with swirling for 30 seconds at 3 minute intervals. Based on the appearance of this initial 10 mg/g excipient sample, a 2-4 point concentration continuum was scanned by up or down sampling at several of the following points: 5, 10, 15, 20, 30, 50 mg/g (test article/excipient). […] Photos of several of the preparations in clear glass vials were taken (not shown).

[3] = Solubility in aqueous polysorbate 80, Assay 4; type: physicochemical
Source text: Equilibrium solubility in formulation excipients and biological fluids influences drug bioavailability, although kinetics of dissolution may also be a limiting factor in determining bioavailability. The solubilities of R enantiomer and racemate of 2-ethyl-3-methoxy-benzoic acid N′-(1-tert-butyl-butyl)-N′-(3,5-dimethyl-benzoyl)-hydrazide were established quantitatively in aqueous preparations of the pharmaceutical surfactant polysorbate 80 and then the intrinsic dissolution rate of compacted test substance was observed. Mixtures of racemate and R enantiomer in 0.5%, 1%, and 1.5% polysorbate 80 solutions were prepared by addition of 20+/−1 mg test substance in a 2 mL Eppendorf vial, followed by 500 mg polysorbate solution. The mixture was bead-beaten for 120 second, shaken at 25° C. for 16 to 24 hours, and filtered using a Spin-X (0.2 μM). The pH of the filtrate was recorded. The concentration of test substance in the filtrate was measured by quantitative HPLC analysis (FIG. 12). The R enantiomer is 2-3× more soluble in 1.0 and 1.5% polysorbate 80 solutions.

MDR1-MDCK cells = assay: Blood brain barrier penetration potential using MDR1-MDCK cells; type: in vitro ADME
Procedure: The test compounds were prepared as a 5 μM solution in HBSSg with a maximum DMSO concentration ≤1%. Confluent monolayers of MDR1-MDCK cells, 7 to 11 days old were prepared. The receiver well was prepared with 1% BSA in modified Hanks buffer (HBSSg), and the apical and basolateral sides were maintained at pH 7.4±0.2. Two monolayers were dosed in each direction (N=2): the apical side was dosed for (A→B) assessment and the basolateral side was dosed for (B→A) assessment. Test compound concentration was measured for both apical and basolateral sides at a time point of 120 minutes using a generic LC/MS/MS method with a minimum 4 point calibration curve. The reported values in FIG. 14: the percent recovery of the test compound from the Transwell® wells containing MDR1-MDCK cell monolayers; apparent permeability (Papp) in both directions; efflux ratio (Papp B→A)/(Papp A→B); and the blood-brain barrier penetration potential classification. […] Also, R enantiomer experiences less efflux. […] Higher blood-brain barrier penetration is a significant advantage for medical indications where central nervous system (CNS) penetration is required.

[4] = test system: murine IL-12 under the control of the RTS; assay: In vivo induction of transgene IL-12 from Ad-RTS-mIL-12 transduced B16 tumor cells; set-up: species or system C57BL/6 mice; settings: for IL-12 expression levels after ligand treatment discontinued: ligand discontinued for 3 days; for transgene IL-12 expression in tumor and serum, dose pattern: oral gavage 0, 3, 10, 30, 50 mg/kg daily for 3 days
Procedure: The transgene tested in this example was murine IL-12 under the control of the RTS. Mouse melanoma cells (B16) were transduced with an adenoviral vector Ad-RTS-mIL-12 that carries the murine IL-12 transgene under the control of RTS. These cells were injected subcutaneously (s.c.) into the C57BL/6 mice (histocompatible with B16 cells) and the mice were treated with different doses of the R enantiomer and racemic 2-ethyl-3-methoxy-benzoic acid N′-(1-tert-butyl-butyl)-N′-(3,5-dimethyl-benzoyl)-hydrazide for three days. The control groups included the mice receiving untransduced B16 cells and the higher dose of ligand and another group receiving the transduced B116 cells and no ligand. […] Tumor extracts and serum were prepared and assayed for IL-12 by ELISA.
The remaining mice were used for testing the transgene turn-off when the ligand administration is discontinued for an additional 72 hours.
Materials and Methods: B16 cells were infected with Ad-RTS-mIL-12 (MOI=100) in vitro. After 48 h, 5×10^5 (B16, right flank) cells were injected s.c. into C57 BL/6 mice (10 mice/group). The R enantiomer and racemate ligands were dissolved in Labrasol by heating a 10 mg/mL mixture at 50° C. for 5 minutes. Both ligands were dissolved in Labrasol based on visual inspection. Activating ligands were provided via oral gavage at the following doses (0 mg/kg; 3 mg/kg; 10 mg/kg; 30 mg/kg and 50 mg/kg) daily for 3 days. Additional controls included B16-bearing mice receiving ligand only (50 mg/kg/day for 3 days and untreated tumor-bearing mice). Five mice/group were harvested for isolation of tumor lesions and peripheral blood. Tissue was homogenized in 1 ml total of phosphate-buffered saline. Lysate/serum was cryopreserved at −80° C. The alternate 5 mice/group were allowed to sit for an additional 72 h in the absence of further ligand administration. These latter 5 mice/group were harvested for isolation of tumor lesions and peripheral blood. Tissue was homogenized as above, and cryopreserved and lysate/serum was cryopreserved at −80° C. Specimens were thawed at 37° C. in water bath and analyzed for mIL-12p70 and also mIFN-γ, a corollary IL-12-dependent cytokine important for CTL trafficking into tumors, using specific ELISAs (BD-Pharmingen).

[5] = test system: IL-12 transgene in transduced AdDCs; assay: In vitro IL-12 transgene induction by transduced AdDCs from healthy volunteers; type: cell-based, human; settings: observed in 2 out of the 3 AdDC preparations
Procedure: Immature DCs are harvested, counted and tested for viability. Approximately 6-7×10^7 DCs are transduced with the adenoviral vector at the optimal multiplicity of infection (the optimal MOI, between 500 and 1000, to be finalized) for the optimal viral adsorption time (between 2 h and 4 h, to be finalized). After transduction, the cells are washed repeatedly to remove any unadsorbed viral particles. Aliquots are set aside for sterility, endotoxin, mycoplasma, DC Phenotype and IL-12 transgene induction assays. The target dose of 5×10^7 cells is held at 4° C. in saline until release testing is complete.
The in vitro testing of the IL-12 transgene induction by the transduced AdDCs takes a minimum of two days for the results to be available and therefore IL-12 production in response to (R)-2-ethyl-3-methoxy-benzoic acid N′-(1-tert-butyl-butyl)-N′-(3,5-dimethyl-benzoyl)-hydrazide will not be a release criterion for the intratumoral injection of the AdDCs. […] Therefore, the in vitro IL-12 induction results are used for analysis of the treatment outcome. As such, the transduced AdDCs are used for injection after viral transduction and washing. Any left-over untransduced and transduced DCs are cryopreserved for future analysis as necessary.

Row | SMILES | weight loss under desiccant condition [1] | weight gain [1] | solubility in pharmaceutical excipients (qualitative) ([2]; all tested excipients except neat polysorbate 80, 5-50 mg/g) | solubility in neat polysorbate 80 (qualitative) ([2]; neat polysorbate 80) | solubility relative to racemate ([3]; 1.0 and 1.5% polysorbate 80 solutions, 25° C.) | solubility of racemate and R enantiomer compared ([3]; deionized water and 0.5% polysorbate 80) | blood-brain barrier penetration potential classification (MDR1-MDCK cells) | efflux, compared (MDR1-MDCK cells) | apparent permeability (Papp), compared (MDR1-MDCK cells; A→B and B→A, 5 μM, 120 minutes) | IL-12 expression levels after ligand treatment discontinued [4] | IFN-γ levels in tumor and serum ([4]; mouse, in vivo) | transgene IL-12 expression in tumor and serum, dose pattern [4] | induced IL-12 expression level [5]
1 | CCC[C@@H](N(NC(=O)c1cccc(OC)c1CC)C(=O)c1cc(C)cc(C)c1)C(C)(C)C [Example 1, (R)-3,5-Dimethyl-benzoic Acid N-(1-tert-butyl-butyl)-N′-(2-ethyl-3-methoxy-benzoyl)-hydrazide] | 0.9 % of total weight | 6.3% | more soluble than racemate | comparably soluble | 2-3 × | comparable | moderately penetrating through the blood-brain barrier | less efflux | more permeable than racemate in both A→B and B→A directions | dropped to similar proportions in all the treatment groups | clearly showed enhanced expression | dose-dependent pattern | 80 ng/million cells/24 h
2 | CCCC(N(NC(=O)c1cccc(OC)c1CC)C(=O)c1cc(C)cc(C)c1)C(C)(C)C (racemic) [rac-1, rac-2-ethyl-3-methoxy-benzoic acid N′-(1-tert-butyl-butyl)-N′-(3,5-dimethyl-benzoyl)-hydrazide] | did not show any significant weight loss | 6.2% |  |  |  |  | low |  |  | dropped to similar proportions in all the treatment groups |  | dose-dependent pattern | 
